Data set [1] has as its system Colon cancer stem cells, i.e., CD133^+HICD44^+HI cells. Kind of data set: Colon cancer stem cell tumor xenograft in NOD/SCID mice. The class given is in vivo. How it is done:
FIG. 3. miR-129 suppresses colorectal cancer cell growth and induces cell cycle arrest. (a) HCT116, […] and SW480 cells were transfected with either miR-129 or negative miRNA, and cell numbers were measured with WST-1 assay at days 1, 3 and 5. Cell cycle analysis was performed to determine the impact of miR-129. The representative flow cytometry pattern was shown in (b) and the G1/S and G2/S ratios were shown in (c) (n=3). (d) Colon cancer stem cells, i.e., CD133^+HICD44^+HI cells were subcutaneously injected into NOD/SCID mice (1×10^4 cells). Mice were treated with either (top left) control lentiviral GFP vector and lentiviral miR-129 expressing construct (n=5) or (top right) mice were injected with negative miRNA (n=5) or miR-129 precursor (n=5) at 1.25 nmol per injection. Tumor sizes were then analyzed 7 weeks after initial treatment (lentiviral or injection). […] Scale bar: 1 cm. (bottom left) Quantitative analysis of colon cancer stem cells in tumor xenografts transfected with lentiviral miR-129 or control constructs reveal a significant reduction in tumor size. (bottom right) Quantitative analysis of colon cancer stem cells in tumor xenografts transfected with control and miR-129 precursor RNA.

Another data set relates to E2F3. The data set can be described thus: Western immunoblot analysis of E2F3 protein in HCT116 cells. It is filed as cell-based, human. The following applies: HCT116 cells after miR-129 transfection. How it is done:
(§1) HCT116, RKO and SW480 cells were plated in 6-well plates at 2×10^5, 1×10^5 and 1×10^5 per well, respectively. Twenty-four hours after plating, 100 nM of miR-129 precursor (Ambion, Carlsbad, Calif., USA) or siRNA against BCL2 (Dharmacon, Lafayette, Colo., USA) were transfected to the cells with oligofectamine (Invitrogen, Carlsbad, Calif., USA) in accordance with the manufacturer's protocol. Negative miRNA (Ambion) was also transfected as a negative control.
Forty-eight hours after transfection, cells were lysed with RIPA buffer (Sigma-Aldrich), and Western immunoblotting was performed using standard procedures. The primary antibodies used for the analysis were mouse anti-human BCL2 antibody (1:200; Thermo Fisher Scientific, Fremont, Calif., USA), rabbit anti-human cleaved caspase-3 antibody (1:200; Cell Signaling Technology, Beverly, Mass., USA), rabbit anti-human cleaved caspase-9 antibody (1:200; Cell Signaling Technology), mouse anti-human E2F3 antibody (1:5000; Millipore, Billerica, Mass., USA), mouse anti-human TS antibody (1:400; Millipore), mouse anti-human GAPDH antibody (1:1000, Santa Cruz Biotechnology, Santa Cruz, Calif., USA) or mouse anti-human α-tubulin antibody (1:1000; Millipore). […] HRP activity was detected with SuperSignal West Pico Chemiluminescent Substrate (Thermo Fisher Scientific) and visualized in an UVP Bioimaging system.
(In general: A western blot detects proteins with antibodies after separation by electrophoresis.)

The subject of the next data set is SW480 cells. Kind of data set: Cell proliferation assay (WST-1), SW480. The class given is cell-based, human. To be noted: day 5. How it is done:
as §1
(§2) Twenty-four hours after transfection, cells were seeded in 96-well plates at a density of 2000 cells per well. The cell proliferation assay was performed on days 1, 3 and 5 by incubating 10 μl WST-1 (Roche Applied Science, Mannheim, Germany) in the culture medium for 1 h and reading the absorbance at 450 and 630 nm. The cell proliferation rate was calculated by […]. Experiments for the cell proliferation assay were performed at least three times.
In general terms: Tetrazolium dyes change colour on reduction, which living cells bring about.

Details of data set [2]: species or system NOD/SCID mice. The following applies: mouse, in vivo. How it is done: When solid and palpable tumors with an average volume of 100-150 mm^3 were formed (at day 14), mice were randomly separated into four groups such that each group was treated either with negative control miRNA, miR-129 alone, 5-FU alone or miR-129 and 5-FU together. The miRNAs were complexed with siPORTamine and injected intratumorally while 5-FU (50 μg g^−1) was injected systemically via the tail vein. All injections were provided in 3-day intervals for a total of three times before the tumors were collected at day 24. […] Importantly, despite the overexpression, the expression levels of miR-129 copy number remained within the physiological range (less than 20 copies/cell based on cycle threshold value at 30, which is equal to the expression of miR-129 in normal colon mucosa). Moreover, the control tumor xenografts had no miR-129 expression (cycle threshold value at 35). […]
The miR-129 specific primer and the internal control RNU44 gene were purchased from Ambion. cDNA synthesis was performed by the High Capacity cDNA Synthesis Kit (Applied Biosystems, CA, USA) with miRNA specific primers. […] Expression level of miR-129 was calculated by the ΔΔCT method based on the internal control RNU44, normalized to the control group and plotted as relative quantification (RQ).

A further data set relates to RKO cells. The data set can be described thus: Cell proliferation assay (WST-1), RKO. The following applies: day 5. The class given is cell-based, human. How it is done:
as §1, §2

For a further data set, the system named is HCT116 cells. Kind of data set: Colorectal cancer xenografts (HCT116) in NOD/SCID mice, tumor volume. The class given is in vivo. The following applies: day 24. How it is done: When solid and palpable tumors with an average volume of 100-150 mm^3 were formed (at day 14), mice were randomly separated into four groups such that each group was treated either with negative control miRNA, miR-129 alone, 5-FU alone or miR-129 and 5-FU together. The miRNAs were complexed with siPORTamine and injected intratumorally while 5-FU (50 μg g^−1) was injected systemically via the tail vein. All injections were provided in 3-day intervals for a total of three times before the tumors were collected at day 24. […] Importantly, despite the overexpression, the expression levels of miR-129 copy number remained within the physiological range (less than 20 copies/cell based on cycle threshold value at 30, which is equal to the expression of miR-129 in normal colon mucosa). Moreover, the control tumor xenografts had no miR-129 expression (cycle threshold value at 35).
Ten-twelve week old NOD/SCID mice (Jackson Laboratories, Bar Harbor, […]., USA) were used for tumor implantation. All animal procedures were approved by the Stony Brook University Institutional Animal Care and Use Committee (IACUC). The tumor implantation and miRNA injection protocol was modified from Trang et al. (see Trang P., et al., Oncogene. (2010) 29(11):1580-7). The mice were anesthetized by isoflurane inhalation. HCT116 cells were subcutaneously injected into the lower back areas of the mice using 2.5×10^6 cells in 100 μl McCoy's 5A with 50% matrigel (BD Biosciences). The tumor size was measured using a caliper and tumor volume was calculated using the formula V=length×width^2/2. When tumor volumes reach 100-150 mm^3 at day 14 post-injection, the mice were randomly assigned into four groups. For the first two groups, 10 μM negative miRNA or miR-129 precursor (Ambion) complexed with 1.6 μl siPORTAmine (Ambion) in 50 μl McCoy's 5A was injected into the tumors every three days. For the third group, 5-FU (Sigma-Aldrich) was injected at 50 μg/g via the tail vein every three days. Finally, for the last group, both miR-129 precursor and 5-FU were injected as described above. The mice were euthanized on day 24 post-injection by CO2 inhalation, and tumors were dissected out for RNA isolation.

For the substance “miR-129: nucleic acid having a sequence of CUUUUUGCGGUCUGGGCUUGC (SEQ ID NO. 1); miR-129 precursor from Ambion used (chemistry not given here; listed as Homo sapiens)”, the tumor size result in data set [1] (delivery via lentiviral miR-129 expressing construct vs control lentiviral GFP vector, 7 weeks) is “reduces tumor size significantly”; in data set [1] (injection of miR-129 precursor at 1.25 nmol per injection vs negative miRNA, 7 weeks after initial treatment), “reduces tumor size significantly”. In addition, the E2F3 protein levels result in the data set with E2F3 is recorded as “reduce E2F3 protein levels”. For the same substance, the “cell proliferation reduced compared to negative controls” value in the data set with SW480 cells amounted to 44.7%; in the data set with RKO cells, 43.9%. Moreover, the “miR-129 copy number in injected tumors” value in data set [2] is “less than 20 copies/cell”. In the data set on HCT116 cells (HCT116 xenograft, compared with negative miRNA or single agents), the “inhibition of tumor growth (in words)” value is “sufficiently reduced tumor size”. Also, the “average tumor volume, % of the control group” value with HCT116 cells (treated days 14, 17, 20, miRNA intratumoral with siPORTamine, 5-FU 50 μg/g tail vein, control negative miRNA) was around 84.4%.

These data come from patent US10697020B2, “MicroRNA-129 as a biomarker for colorectal cancer” (THE RESEARCH FOUNDATION FOR THE STATE UNIVERSITY OF NEW YORK, priority 2013, dated 2020).
